Laboratory results as given in patent US10208021B2, “Substituted tetrahydroisoquinoline compounds as factor XIa inhibitors” (BRISTOL-MYERS SQUIBB COMPANY, priority 2011, dated 2019).
pKi: −log10 of the molar value. Where a name gives a salt, the structure may show the parent alone.

target: purified human Factor XIa (Homo sapiens (Human), UniProt P03951); assay: Factor XIa chromogenic substrate (S-2366) inhibition assay; assay type: biochemical; settings: substrate S-2366, Table 1
Outline: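 Ki derived from reaction velocities measured in the presence of inhibitor. Purified protease hydrolysed the chromogenic substrate; rate of absorbance change was followed over 20-180 minutes, depending on the protease.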

Sequence of purified human Factor XIa (P03951 388-625): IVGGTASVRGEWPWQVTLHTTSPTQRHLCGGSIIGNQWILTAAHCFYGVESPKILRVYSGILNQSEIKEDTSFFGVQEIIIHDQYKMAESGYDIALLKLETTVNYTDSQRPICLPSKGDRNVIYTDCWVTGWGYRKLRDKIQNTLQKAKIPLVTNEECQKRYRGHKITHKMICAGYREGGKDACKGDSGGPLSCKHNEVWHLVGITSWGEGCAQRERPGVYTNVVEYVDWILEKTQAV
Sequence of purified human Factor XIa (P03951 19-387 partner): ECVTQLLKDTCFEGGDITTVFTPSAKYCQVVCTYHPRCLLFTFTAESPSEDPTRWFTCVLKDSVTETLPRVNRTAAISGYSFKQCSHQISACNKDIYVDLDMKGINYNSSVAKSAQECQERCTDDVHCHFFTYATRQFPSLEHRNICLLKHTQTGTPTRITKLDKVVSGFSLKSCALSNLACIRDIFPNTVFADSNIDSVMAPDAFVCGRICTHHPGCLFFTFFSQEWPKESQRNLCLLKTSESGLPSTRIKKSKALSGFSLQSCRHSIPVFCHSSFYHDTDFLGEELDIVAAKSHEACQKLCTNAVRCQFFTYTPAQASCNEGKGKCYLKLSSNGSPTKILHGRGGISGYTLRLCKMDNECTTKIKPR

SMILES | pKi
O=C(O)c1ccc(NC(=O)C2c3cccc(N4CCC(N5CCCC5=O)CC4)c3CCN2C(=O)C=Cc2c(-n3cnnn3)ccc(Cl)c2F)cc1 (centres unmarked) [Example 119] | > 8.30
CCOC(=O)c1ccc(NC(=O)C2c3cccc(N4CCC(N5CCCC5=O)CC4)c3CCN2C(=O)C=Cc2c(-n3cnnn3)ccc(Cl)c2F)cc1 (centres unmarked) [Example 125] | 6.00
CCOC(=O)c1ccc(NC(=O)[C@H]2c3cccc(N4CCC(N(C)C)CC4)c3CCN2C(=O)/C=C/c2c(-n3cnnn3)ccc(Cl)c2F)cc1 [Example 128] | 6.88
CCOC(=O)c1ccc(NC(=O)C2c3cccc(N4CCC(N5CCCC5)CC4)c3CCN2C(=O)C=Cc2c(C(C)=O)ccc(Cl)c2F)cc1 (centres unmarked) [Example 169] | 6.29

Continued, values first:

pKi | SMILES
5.77 | CCOC(=O)c1ccc(NC(=O)[C@H]2c3cccc(N4CCNCC4=O)c3CCN2C(=O)/C=C/c2c(-n3cnnn3)ccc(Cl)c2F)cc1 [Example 189]
5.98 | CCOC(=O)c1ccc(NC(=O)[C@H]2c3cccc(N4CCN(C)CC4=O)c3CCN2C(=O)/C=C/c2c(-n3cnnn3)ccc(Cl)c2F)cc1 [Example 191, (R,E)-Ethyl 4-(2-(3-(3-chloro-2-fluoro-6-(1H-tetrazol-1-yl)phenyl)acryloyl)-5-(4-methyl-2-oxopiperazin-1-yl)-1,2,3,4-tetrahydroisoquinoline-1-carboxamido)benzoate, TFA Salt]
6.97 | CC1(C)Cc2c(cccc2N2CCNCC2)[C@H](C(=O)Nc2ccc(C(=O)O)cc2)N1C(=O)/C=C/c1c(-n2cnnn2)ccc(Cl)c1F [Example 193, (R,E)-4-(2-(3-(3-Chloro-2-fluoro-6-(1H-tetrazol-1-yl)phenyl)acryloyl)-3,3-dimethyl-5-(piperazin-1-yl)-1,2,3,4-tetrahydroisoquinoline-1-carboxamido) benzoic acid, bis-TFA salt]

same assay, conditions: substrate S-2366, activity ranges, Table A

SMILES | pKi
O=C(O)c1ccc(NC(=O)C2c3cccc(N4CCC(N5CCCC5=O)CC4)c3CCN2C(=O)C=Cc2c(-n3cnnn3)ccc(Cl)c2F)cc1 (centres unmarked) [Example 118] | 8.00 to 8.30
CCOC(=O)c1ccc(NC(=O)[C@@H]2c3cccc(N4CCC(N(C)C)CC4)c3CCN2C(=O)/C=C/c2c(-n3cnnn3)ccc(Cl)c2F)cc1 [Example 129] | > 8.30
O=C(O)c1ccc(NC(=O)[C@H]2c3cccc(N4CCC(C(=O)N5CCCC5)CC4)c3CCN2C(=O)/C=C/c2c(-n3cnnn3)ccc(Cl)c2F)cc1 [Example 132] | 6.30 to 7.00
O=C(O)c1ccc(NC(=O)[C@@H]2c3cccc(N4CCC(C(=O)N5CCCC5)CC4)c3CCN2C(=O)/C=C/c2c(-n3cnnn3)ccc(Cl)c2F)cc1 [Example 133] | > 8.30
CCOC(=O)c1ccc(NC(=O)[C@@H]2c3cccc(N4CCC(C(=O)N5CCCC5)CC4)c3CCN2C(=O)/C=C/c2c(-n3cnnn3)ccc(Cl)c2F)cc1 [Example 135] | > 8.30
O=C(O)c1ccc(NC(=O)[C@@H]2c3cccc(N4CCC(N5CCOCC5)CC4)c3CCN2C(=O)/C=C/c2c(-n3cnnn3)ccc(Cl)c2F)cc1 [Example 139] | > 8.30
O=C(O)c1ccc(NC(=O)[C@@H]2c3cccc(N4CCC(C(=O)N5CCOCC5)CC4)c3CCN2C(=O)/C=C/c2c(-n3cnnn3)ccc(Cl)c2F)cc1 [Example 141] | > 8.30
O=C(O)c1ccc(NC(=O)[C@@H]2c3cccc(N4CCC5(CC4)OCCO5)c3CCN2C(=O)/C=C/c2c(-n3cnnn3)ccc(Cl)c2F)cc1 [Example 143] | > 8.30
COC(=O)c1ccc(NC(=O)[C@@H]2c3cccc(N4CCC5(CC4)OCCO5)c3CCN2C(=O)/C=C/c2c(-n3cnnn3)ccc(Cl)c2F)cc1 [Example 144] | > 8.30
O=C(O)c1ccc(NC(=O)[C@@H]2c3cccc(N4CCC(O)CC4)c3CCN2C(=O)/C=C/c2c(-n3cnnn3)ccc(Cl)c2F)cc1 [Example 149] | > 8.30
COC1CCN(c2cccc3c2CCN(C(=O)/C=C/c2c(-n4cnnn4)ccc(Cl)c2F)[C@@H]3C(=O)Nc2ccc(C(=O)O)cc2)CC1 [Example 151] | > 8.30
N#Cc1ccc(Cl)c(F)c1C=CC(=O)N1CCc2c(cccc2N2CCC(N3CCCC3)CC2)C1C(=O)Nc1ccc(C(=O)O)cc1 (centres unmarked) [Example 163] | 8.00 to 8.30
N#Cc1ccc(Cl)c(F)c1C=CC(=O)N1CCc2c(cccc2N2CCC(N3CCCC3)CC2)C1C(=O)Nc1ccc(C(=O)O)cc1 (centres unmarked) [Example 164] | > 8.30
CCOC(=O)c1ccc(NC(=O)C2c3cccc(N4CCC(N5CCCC5)CC4)c3CCN2C(=O)C=Cc2c(C#N)ccc(Cl)c2F)cc1 (centres unmarked) [Example 166] | 8.00 to 8.30
CC(=O)c1ccc(Cl)c(F)c1C=CC(=O)N1CCc2c(cccc2N2CCC(N3CCCC3)CC2)C1C(=O)Nc1ccc(C(=O)O)cc1 (centres unmarked) [Example 167] | 8.00 to 8.30
CC(=O)c1ccc(Cl)c(F)c1C=CC(=O)N1CCc2c(cccc2N2CCC(N3CCCC3)CC2)C1C(=O)Nc1ccc(C(=O)O)cc1 (centres unmarked) [Example 168] | > 8.30
CCOC(=O)c1ccc(NC(=O)C2c3cccc(N4CCC(N5CCCC5)CC4)c3CCN2C(=O)C=Cc2c(C(C)=O)ccc(Cl)c2F)cc1 (centres unmarked) [Example 170] | > 8.30
CC(=O)c1ccc(Cl)c(F)c1C=CC(=O)N1CCc2c(cccc2N2CCC(N3CCCC3)CC2)C1C(=O)Nc1ccc(C(=O)OCc2ccccc2)cc1 (centres unmarked) [Example 171] | 8.00 to 8.30
CC(=O)c1ccc(Cl)c(F)c1C=CC(=O)N1CCc2c(cccc2N2CCC(N3CCCC3)CC2)C1C(=O)Nc1ccc(C(=O)OCC(=O)N(C)C)cc1 (centres unmarked) [Example 172] | > 8.30
CC(=O)c1ccc(Cl)c(F)c1C=CC(=O)N1CCc2c(cccc2N2CCC(N3CCCC3)CC2)C1C(=O)Nc1ccc(C(=O)OCCn2cncn2)cc1 (centres unmarked) [Example 173] | 8.00 to 8.30

Second part, the compound after the results:

pKi | SMILES
> 8.30 | COCCOC(=O)c1ccc(NC(=O)C2c3cccc(N4CCC(N5CCCC5)CC4)c3CCN2C(=O)C=Cc2c(C(C)=O)ccc(Cl)c2F)cc1 (centres unmarked) [Example 174]
8.00 to 8.30 | CCOC(=O)c1ccc(NC(=O)C2c3cccc(N4CCC(N5CCCC5)CC4)c3CCN2C(=O)C=Cc2c(C(F)(F)F)ccc(Cl)c2F)cc1 (centres unmarked) [Example 177]
> 8.30 | O=C(O)c1ccc(NC(=O)C2c3cccc(N4CCC(N5CCCC5)CC4)c3CCN2C(=O)C=Cc2c(C(F)(F)F)ccc(Cl)c2F)cc1 (centres unmarked) [Example 178]
6.30 to 7.00 | O=C(O)c1ccc(NC(=O)C2c3cccc(N4CCC(N5CCCC5)CC4)c3CCN2C(=O)C=Cc2c(C(F)(F)F)ccc(Cl)c2F)cc1 (centres unmarked) [Example 179]
8.00 to 8.30 | CCOC(=O)c1ccc(NC(=O)C2c3cccc(N4CCOCC4)c3CCN2C(=O)C=Cc2c(-n3cnnn3)ccc(Cl)c2F)cc1 (centres unmarked) [Example 185]
5.30 to 6.30 | CCOC(=O)c1ccc(NC(=O)C2c3cccc(N4CCOCC4)c3CCN2C(=O)C=Cc2c(-n3cnnn3)ccc(Cl)c2F)cc1 (centres unmarked) [Example 186]
8.00 to 8.30 | CCOC(=O)c1ccc(NC(=O)[C@@H]2c3cccc(N4CCNCC4=O)c3CCN2C(=O)/C=C/c2c(-n3cnnn3)ccc(Cl)c2F)cc1 [Example 190]
8.00 to 8.30 | CCOC(=O)c1ccc(NC(=O)[C@@H]2c3cccc(N4CCN(C)CC4=O)c3CCN2C(=O)/C=C/c2c(-n3cnnn3)ccc(Cl)c2F)cc1 [Example 192, (S,E)-Ethyl 4-(2-(3-(3-chloro-2-fluoro-6-(1H-tetrazol-1-yl)phenyl)acryloyl)-5-(4-methyl-2-oxopiperazin-1-yl)-1,2,3,4-tetrahydroisoquinoline-1-carboxamido)benzoate, TFA Salt]
